Experimental data taken from the supplement of paper PMC11061612.

How the values were obtained:
Experiment in all cases: combination Emax (second highest fraction inhibited in the dose matrix, 72 h); higher = more inhibition; extreme values may be limits of the assay
[1] = test system: HCC1806 (Breast Carcinoma)
Procedure, shortened: (§1)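 Cell lines grown in DMEM/F12 or RPMI with 10% FBS were plated in 1536-well plates and held 24 hours at 37°C, 5% CO2 before 72 hours of exposure to two-drug dose matrices, with DMSO typically at 0.2%. CellTiter-Glo 2.0 luminescence gave viability, which was converted to inhibition. Vehicle wells were set to 0 and blank wells to 1. Combination Emax is the second-highest inhibition in the matrix, and Bliss excess is the observed combination effect minus the expected EA + EB − EA·EB, where EA and EB are the single-agent effects.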

[2] = test system: TCCSUP (Bladder Carcinoma)
Procedure, shortened: as §1

[3] = test system: LU-135 (Small Cell Lung Carcinoma)
Procedure, shortened: as §1

[4] = test system: KP-1N (Pancreatic Carcinoma)
Procedure, shortened: as §1

[5] = test system: COLO-205 (Colorectal Carcinoma)
Procedure, shortened: as §1

[6] = test system: Daoy (Other Solid Carcinomas)
Procedure, shortened: as §1

ES4 (Ewing's Sarcoma) = test system: ES4 (Ewing's Sarcoma)
Procedure, shortened: as §1

[7] = test system: RC-K8 (B-Cell Non-Hodgkin's Lymphoma)
Procedure, shortened: as §1

42-MG-BA (Glioblastoma) = test system: 42-MG-BA (Glioblastoma)
Procedure, shortened: as §1

[8] = test system: DoTc2-4510 (Cervical Carcinoma)
Procedure, shortened: as §1

[9] = test system: Ramos-2G6-4C10 (Burkitt's Lymphoma)
Procedure, shortened: as §1

[10] = test system: ME-1 (Acute Myeloid Leukemia)
Procedure, shortened: as §1

[11] = test system: Calu-3 (Lung Adenocarcinoma)
Procedure, shortened: as §1

T98G (Glioblastoma) = test system: T98G (Glioblastoma)
Procedure, shortened: as §1

[12] = test system: TE-15 (Esophageal Squamous Cell Carcinoma)
Procedure, shortened: as §1

[13] = test system: HCC-78 (Lung Adenocarcinoma)
Procedure, shortened: as §1

NB10 (Neuroblastoma) = test system: NB10 (Neuroblastoma)
Procedure, shortened: as §1

[14] = test system: CCRF-CEM (T-Lymphoblastic Leukemia)
Procedure, shortened: as §1

[15] = test system: NCI-H2085 (Non-Small Cell Lung Carcinoma)
Procedure, shortened: as §1

[16] = test system: TE-9 (Esophageal Squamous Cell Carcinoma)
Procedure, shortened: as §1

Row | SMILES | combination Emax [1] | combination Emax [2] | combination Emax [3] | combination Emax [4] | combination Emax [5] | combination Emax [6] | combination Emax (ES4 (Ewing's Sarcoma)) | combination Emax [7] | combination Emax (42-MG-BA (Glioblastoma)) | combination Emax [8] | combination Emax [9] | combination Emax [10] | combination Emax [11] | combination Emax (T98G (Glioblastoma)) | combination Emax [12] | combination Emax [13] | combination Emax (NB10 (Neuroblastoma)) | combination Emax [14] | combination Emax [15] | combination Emax [16]
1 | COc1nnc2ccc(N3CCC(c4ccc(OCCN5CCN(C)C(=O)[C@H]5C)cc4)CC3)nn12 [AZD5153] + CN(CC[C@H](CSC1=CC=CC=C1)NC2=C(C=C(C=C2)S(=O)(=O)NC(=O)C3=CC=C(C=C3)N4CCC(CC4)[C@H](C5=CC=CC=C5C6=CC=C(C=C6)Cl)O)S(=O)(=O)C(F)(F)F)CCO [AZD4320] (first compound max 1 µM, 7x7, partner max 1 µM) | 0.588 | 0.297 | 1 | 0.53 | 0.95 | 0.627 | 0.795 | 1 | 0.868 |  |  |  |  |  |  |  |  |  |  | 
2 | Cc1c2c(nn1C)CSCc1cc(n(C)n1)CSc1cc(c3ccccc3c1)OCCCc1c(C(=O)O)n(C)c3c-2c(Cl)ccc13 [AZD5991] + C1CN(CCC1(C(=O)N[C@@H](CCO)C2=CC=C(C=C2)Cl)N)C3=NC=NC4=C3C=CN4 [Capivasertib] (first compound max 1 µM, 7x7, partner max 3 µM) | 0.528 | 0.25 | 0.323 | 0.249 | 0.313 | 0.345 | 0.19 | 0.161 | 1 | 0.355 | 1 | 0.772 | 0.182 | 0.3 | 0.36 | 0.228 | 0.194 | 0.637 | 0.262 | 
3 | Cc1c2c(nn1C)CSCc1cc(n(C)n1)CSc1cc(c3ccccc3c1)OCCCc1c(C(=O)O)n(C)c3c-2c(Cl)ccc13 [AZD5991] + Cn1cnc2c(F)c(Nc3ccc(Br)cc3Cl)c(C(=O)NOCCO)cc21 [Selumetinib] (first compound max 1 µM, 7x7, partner max 3 µM) | 0.667 | 0.227 | 0.22 | 0.189 | 0.828 | 0.278 |  | 0.239 | 0.988 | 0.432 | 0.998 | 0.906 | 0.121 | 0.249 | 0.317 | 0.253 | 0.396 | 0.325 | 0.631 | 0.162
4 | COc1cccc2c1C(=O)c1c(O)c3c(c(O)c1C2=O)C[C@@](O)(C(=O)CO)C[C@@H]3O[C@H]1C[C@H](N)[C@H](O)[C@H](C)O1 [Doxorubicin] + Cc1cc2ncnn2cc1Nc1ncc2c(n1)n(C1CCOCC1)c(=O)n2C [AZD7648] (first compound max 1 µM, 7x7, partner max 10 µM) | 0.919 | 0.665 | 0.817 | 0.675 | 0.727 | 0.875 | 0.945 |  | 0.925 | 0.844 | 0.951 | 0.355 | 0.301 | 0.597 | 0.721 | 0.751 | 0.863 | 1 | 0.546 | 0.148
5 | CC(=O)c1c(C)c2cnc(Nc3ccc(N4CCNCC4)cn3)nc2n(C2CCCC2)c1=O [Palbociclib] + CN(CC[C@H](CSC1=CC=CC=C1)NC2=C(C=C(C=C2)S(=O)(=O)NC(=O)C3=CC=C(C=C3)N4CCC(CC4)[C@H](C5=CC=CC=C5C6=CC=C(C=C6)Cl)O)S(=O)(=O)C(F)(F)F)CCO [AZD4320] (first compound max 10 µM, 7x7, partner max 1 µM) | 0.442 | 0.364 | 1 | 0.27 | 0.868 | 0.368 | 0.485 | 0.838 | 0.511 |  |  |  |  |  |  |  |  |  |  | 
6 | COc1cccc(OCCCN)c1-c1cc(Nc2cnc(C#N)cn2)n[nH]1 [Prexasertib] + C=CCn1c(=O)c2cnc(Nc3ccc(N4CCN(C)CC4)cc3)nc2n1-c1cccc(C(C)(C)O)n1 [AZD1775] (first compound max 1 µM, partner max 1 µM) | 0.983 | 0.748 | 0.655 | 0.575 | 0.908 | 0.985 | 0.893 |  | 0.941 | 0.906 | 1 | 0.599 | 0.482 | 0.917 | 0.866 | 0.793 | 0.953 | 1 | 0.94 | 0.86
7 | COc1cccc(OCCCN)c1-c1cc(Nc2cnc(C#N)cn2)n[nH]1 [Prexasertib] + CN(C)CCCOc1ccc(-c2ccc3ncc4c(c3c2)n(C2CCOCC2)c(=O)n4C)cn1 [AZD0156] (first compound max 1 µM, 7x7, partner max 1 µM) | 0.967 | 0.689 | 0.554 | 0.298 | 0.673 | 0.958 | 0.912 |  | 0.937 | 0.89 | 1 | 0.622 | 0.409 | 0.899 | 0.831 | 0.685 | 0.928 | 1 | 0.92 | 0.596
8 | COc1cccc(OCCCN)c1-c1cc(Nc2cnc(C#N)cn2)n[nH]1 [Prexasertib] + C[C@@H]1COCCN1C2=NC(=NC(=C2)C3(CC3)[S@](=N)(=O)C)C4=C5C=CNC5=NC=C4 [AZD6738] (first compound max 1 µM, 7x7, partner max 10 µM) | 0.988 | 0.712 | 0.634 | 0.324 | 0.565 | 0.956 | 0.879 |  | 0.904 | 0.88 | 1 | 0.633 | 0.405 | 0.905 | 0.874 | 0.744 | 0.863 | 1 | 0.872 | 0.481
9 | COc1cccc(OCCCN)c1-c1cc(Nc2cnc(C#N)cn2)n[nH]1 [Prexasertib] + Cc1cc2ncnn2cc1Nc1ncc2c(n1)n(C1CCOCC1)c(=O)n2C [AZD7648] (first compound max 1 µM, 7x7, partner max 10 µM) | 0.978 | 0.704 | 0.584 | 0.246 | 0.675 | 0.965 | 0.93 |  | 0.908 | 0.86 | 1 | 0.622 | 0.416 | 0.893 | 0.831 | 0.736 | 0.918 | 1 | 0.825 | 0.516
10 | COc1cccc(OCCCN)c1-c1cc(Nc2cnc(C#N)cn2)n[nH]1 [Prexasertib] + O=C(c1cc(Cc2n[nH]c(=O)c3ccccc23)ccc1F)N1CCN(C(=O)C2CC2)CC1 [Olaparib] (first compound max 1 µM, 7x7, partner max 10 µM) | 0.999 | 0.731 | 0.493 | 0.332 | 0.573 | 0.983 | 0.887 |  | 0.908 | 0.875 | 1 | 0.61 | 0.381 | 0.757 | 0.842 | 0.718 | 0.797 | 1 | 0.587 | 0.567
11 | COc1cc2c(cc1OCCCCCOc1cc3c(cc1OC)C(=O)N1C=C(C)C[C@H]1C=N3)N=C[C@@H]1CC(C)=CN1C2=O [SG3199] + O=C(c1cc(Cc2n[nH]c(=O)c3ccccc23)ccc1F)N1CCN(C(=O)C2CC2)CC1 [Olaparib] (first compound max 0.001 µM, 7x7, partner max 10 µM) | 0.212 | 0.162 | 0.354 | 0.18 | 0.0813 | 0.42 | 0.566 |  | 0.247 | 0.321 | 0 | 0.163 | 0.0759 | 0.114 | 0.166 | 0.101 | 0.348 | 0.257 | 0.059 | 0.0964
12 | CCc1c2c(nc3ccc(O)cc13)-c1cc3c(c(=O)n1C2)COC(=O)[C@]3(O)CC [SN-38] + CN(C)CCCOc1ccc(-c2ccc3ncc4c(c3c2)n(C2CCOCC2)c(=O)n4C)cn1 [AZD0156] (first compound max 0.3 µM, 7x7, partner max 1 µM) | 0.91 | 0.743 | 0.728 | 0.627 | 0.509 | 1 | 0.947 |  | 1 | 0.972 | 0.98 | 0.571 | 0.319 | 0.546 | 0.819 | 0.924 | 0.829 | 1 | 0.221 | 0.395
13 | CCc1c2c(nc3ccc(O)cc13)-c1cc3c(c(=O)n1C2)COC(=O)[C@]3(O)CC [SN-38] + O=C(c1cc(Cc2n[nH]c(=O)c3ccccc23)ccc1F)N1CCN(C(=O)C2CC2)CC1 [Olaparib] (first compound max 0.3 µM, 7x7, partner max 10 µM) | 0.974 | 0.665 | 0.843 | 0.645 | 0.618 | 0.971 | 0.767 |  | 1 | 0.988 | 0.996 | 0.497 | 0.398 | 0.632 | 0.811 | 0.898 | 0.866 | 1 | 0.132 | 0.458
14 | C[C@@H](c1ccc2nccn2c1)n1nnc2ncc(-c3cnn(C)c3)nc21 [Savolitinib] + CN(CC[C@H](CSC1=CC=CC=C1)NC2=C(C=C(C=C2)S(=O)(=O)NC(=O)C3=CC=C(C=C3)N4CCC(CC4)[C@H](C5=CC=CC=C5C6=CC=C(C=C6)Cl)O)S(=O)(=O)C(F)(F)F)CCO [AZD4320] (first compound max 1 µM, 7x7, partner max 1 µM) | 0.436 | 0.194 | 1 | 0.175 | 0.566 | 0.139 | 0.557 | 0.504 | 0.222 |  |  |  |  |  |  |  |  |  |  | 
